The values below come from patent publication US20250236596A1, “HYDROXYLAMINE-BASED EGFR INHIBITORS FOR TREATMENT OF CANCER WITH BRAIN METASTASES” (University of Georgia Research Foundation, Inc., priority 2022, published 2025).

Data set [1] deals with HCC827 NSCLC cells (EGFR del E746_A750). Nature of the data set: CellTiter-Glo viability assay, HCC827. Format: cell-based. The conditions noted are these: Homo sapiens; HCC827, EGFR del E746_A750, 72 h; read-out: antiproliferative IC50. As to the method:
(§1) The A431, HCC827, SK-BR-3, ZR-75-30, AU565 and Caco-2 cell lines were obtained from ATCC. The NCI-H1975 cell line was obtained from SIBS. The NCI-H3255 cell line was obtained from CoBioer. Engineered Ba/F3 cell lines were obtained from Crown Bioscience. MCKII-MDR1 cells were obtained from the Netherlands Cancer Institute. HEK293 cells were obtained from Invitrogen. A431 cells were cultured in DMEM (Life Technologies) with 10% FBS. HCC827, NCI-H1975 and AU565 cells were cultured in RPMI1640 (Invitrogen) with 10% FBS. NCI-H3255 cells were cultured in BEGM (Lonza) with 10% FBS. Ba/F3 EGFR-del E746_A750/C797S and Ba/F3 EGFR-L858R/C797S cells were cultured in RPMI (Invitrogen) with 10% FBS. SK-BR-3 cells were cultured in McCoy's 5a (Invitrogen) with 10% FBS. ZR-75-30 cells were cultured in RPMI1640 (Invitrogen) with 20% FBS. BT474 cells were cultured in DMEM (Gibco) with 10% FBS and 10 μg/mL Insulin. Caco-2 and MCKII-MDR1 culture information is given in the permeability studies section. […]
(§2) Viability assays using A431, HCC827, NCI-H1975, NCI-H3255, Ba/F3 EGFR-del E746_A750/C797S, Ba/F3 EGFR-L858R/C797S, AU565, SK-BR-3 and ZR-75-30 cells were performed at Crown BioScience. […] Dose-response curves were generated and used to calculate the IC50 values which were calculated on GraphPad Prism from the non-linear regression equation fitted with a sigmoidal dose response and are presented as the mean±SEM.
Background: In ATP-based viability assays light output follows the ATP content of the culture.

In data set [2] the test system is NCI-H3255 NSCLC cell line (EGFR L858R). Kind of data set: CellTiter-Glo viability assay, NCI-H3255. The conditions noted are these: Homo sapiens, 72 h, read-out: antiproliferative IC50. Format: cell-based. The method, then: as §1, §2
The target in data set [3] is CYP1A2 (Homo sapiens, UniProt P05177). Kind of data set: Human CYP450 inhibition in human liver microsomes, CYP1A2. Format: in vitro ADME. Particulars: pooled human liver microsomes, probe phenacetin (40 μM), O-demethylation. The method, then: (§3) Assessment of compound 15 was carried out at Pharmaron Inc. for its potential to inhibit cytochrome P450 (CYP) isoforms using human liver microsomes. The activities tested were CYP1A2-mediated phenacetin O-demethylation, CYP2C19-mediated (S)-mephenytoin 4′-hydroxylation, CYP2C9-mediated diclofenac 4′-hydroxylation, CYP2D6-mediated dextromethorphan O-demethylation and CYP3A4-mediated midazolam 1′-hydroxylation. Concentrations of substrates were phenacetin (40 μM), mephenytoin (50 μM), diclofenac (6 μM), dextromethorphan (2 μM) and midazolam (1 μM). Probe substrates phenacetin, mephenytoin and dextromethorphan were incubated at 37° for 20 min. Probe substrates diclofenac and midazolam were incubated at 37° for 5 min. […] The reactions were initiated by adding NADPH (1 mM final concentration) after a 5 min-preincubation and the assay was ran in duplicate (n=2). Samples were analyzed by UPLC-MS/MS.
CYP1A2, sequence (P05177 whole entry, canonical isoform): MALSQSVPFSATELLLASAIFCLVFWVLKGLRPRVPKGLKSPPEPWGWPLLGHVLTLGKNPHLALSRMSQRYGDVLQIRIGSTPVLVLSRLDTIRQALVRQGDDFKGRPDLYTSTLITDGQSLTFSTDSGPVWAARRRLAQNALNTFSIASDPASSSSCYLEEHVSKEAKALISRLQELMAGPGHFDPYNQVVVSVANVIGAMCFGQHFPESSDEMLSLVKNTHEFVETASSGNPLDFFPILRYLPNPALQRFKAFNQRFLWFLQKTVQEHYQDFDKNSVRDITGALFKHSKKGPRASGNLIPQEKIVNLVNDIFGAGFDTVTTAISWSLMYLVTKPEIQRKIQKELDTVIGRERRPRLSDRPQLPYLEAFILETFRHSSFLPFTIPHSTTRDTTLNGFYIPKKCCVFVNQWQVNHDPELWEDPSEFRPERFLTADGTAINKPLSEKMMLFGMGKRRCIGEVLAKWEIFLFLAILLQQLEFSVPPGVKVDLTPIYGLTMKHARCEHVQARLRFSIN
In general terms: Liver microsomes are vesicles of endoplasmic reticulum, rich in cytochrome P450 enzymes.

For data set [4], the system named is NCI-H1975 (EGFR L858R/T790M). Kind of data set: CellTiter-Glo viability assay, NCI-H1975. Format: cell-based, human. The conditions noted are these: 72 h, result in words. As to the method: as §1, §2
Data set [5] can be described thus: Solubility in PBS at pH 7.4. Format: physicochemical. The conditions noted are these: compared to both 1 and 6; result in words. The method, then: Solubility was determined by Pharmaron Inc. and each compound was assessed in duplicate (n=2) by adding 15 μL of compound stock solution (10 mM in DMSO) into a 96-well plate along with 485 μL of buffer followed by shaking at 25° C., 1,100 rpm for 2 h. Wells were filtered and samples (5 μL) were taken followed by dilution with an equal volume of DMSO (5 μL) and 490 μL of aqueous solution. Samples were analyzed by LC-MS/MS.

Data set [6] has as its target T1, HER2 (Homo sapiens, UniProt P04626).
T1 construct: purchased Eurofins DiscoverX (contract assay, KINOMEScan KdELECT)
Kind of data set: Follow-up KdELECT binding, HER2. The method, then: In vitro kinase activity (inhibitor binding constants (Kd) and biochemical inhibition (IC50's)) were assessed by Eurofins DiscoverX (Kd determinations) and Eurofins Cerep (biochemical IC50 determinations).

In data set [7] the test system is MDCKII-MDR1 cells. Nature of the data set: MDCKII-MDR1 cell permeability assay. Format: in vitro ADME, canine. Particulars: result in words. The method, then: Compounds were evaluated at Pharmaron Inc. for their ability to permeate Caco-2 cells and MDCKII-MDR1 cells. A 96-well HTS Transwell plate (Corning) was used for the Caco-2 and MDCKII-MDR1 cell seeding. Caco-2 cells were seeded at a density of 6.86×10^5 cells/mL and cultivated for 14-18 days prior to assays. MDCKII-MDR1 cells were seeded at a density of 1.56×10^6 cells/mL and cultivated for 4-8 days prior to assays. To determine the rate of drug transport in both the absorptive (apical to basolateral (A-B)) and secretory (basolateral to apical (B-A)) directions, compounds (5 μM in DMSO for Caco-2 cells, and 1 μM in DMSO for MDCKII-MDR1 cells) were added to the donor wells. Plates were incubated at 37° C. for 2 h and samples (50 μL) were taken at the beginning and end of the incubation in both the donor and acceptor wells with the assay run in duplicate (n=2). Samples were analyzed by LC-MS/MS. The apparent permeability coefficient (Papp) in units (cm/s×10^−6) was calculated using the following equation.
where, VA represents the volume (mL) in the acceptor well. Area is the surface of the membrane (0.143 cm^2 for Transwell-96 well plate) and time is the total transport time in sec.
The efflux ratio was determined using the following equation: Efflux ratio=Papp (B-A)/Papp(A-B)
Where, Papp (B-A) indicates the apparent permeability in the basolateral to apical direction, and Papp (A-B) indicates the apparent permeability in the apical to basolateral direction.

Data set [8] addresses CYP2C9 (Homo sapiens, UniProt P11712). Nature of the data set: Human CYP450 inhibition in human liver microsomes, CYP2C9. The conditions noted are these: pooled human liver microsomes, probe diclofenac (6 μM), 4′-hydroxylation. Format: in vitro ADME. As to the method:
as §3

Each structure is given as a SMILES string. A value given as a limit tells only on which side of the number the result lay.

CYP2C9, sequence (P11712 whole entry): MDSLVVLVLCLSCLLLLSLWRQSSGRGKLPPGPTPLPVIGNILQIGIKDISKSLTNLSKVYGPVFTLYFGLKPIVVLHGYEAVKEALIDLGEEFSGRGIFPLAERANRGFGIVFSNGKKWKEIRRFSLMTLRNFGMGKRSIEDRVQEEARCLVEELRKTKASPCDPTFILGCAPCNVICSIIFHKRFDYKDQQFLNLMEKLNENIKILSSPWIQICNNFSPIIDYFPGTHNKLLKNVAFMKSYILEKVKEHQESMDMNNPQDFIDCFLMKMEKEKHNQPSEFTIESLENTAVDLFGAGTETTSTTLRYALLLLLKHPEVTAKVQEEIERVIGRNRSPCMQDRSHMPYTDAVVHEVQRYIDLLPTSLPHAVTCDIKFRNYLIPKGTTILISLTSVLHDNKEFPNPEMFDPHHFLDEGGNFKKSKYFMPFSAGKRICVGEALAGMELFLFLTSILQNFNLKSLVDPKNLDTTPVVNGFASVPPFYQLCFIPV
T1 sequence (P04626 23-1255): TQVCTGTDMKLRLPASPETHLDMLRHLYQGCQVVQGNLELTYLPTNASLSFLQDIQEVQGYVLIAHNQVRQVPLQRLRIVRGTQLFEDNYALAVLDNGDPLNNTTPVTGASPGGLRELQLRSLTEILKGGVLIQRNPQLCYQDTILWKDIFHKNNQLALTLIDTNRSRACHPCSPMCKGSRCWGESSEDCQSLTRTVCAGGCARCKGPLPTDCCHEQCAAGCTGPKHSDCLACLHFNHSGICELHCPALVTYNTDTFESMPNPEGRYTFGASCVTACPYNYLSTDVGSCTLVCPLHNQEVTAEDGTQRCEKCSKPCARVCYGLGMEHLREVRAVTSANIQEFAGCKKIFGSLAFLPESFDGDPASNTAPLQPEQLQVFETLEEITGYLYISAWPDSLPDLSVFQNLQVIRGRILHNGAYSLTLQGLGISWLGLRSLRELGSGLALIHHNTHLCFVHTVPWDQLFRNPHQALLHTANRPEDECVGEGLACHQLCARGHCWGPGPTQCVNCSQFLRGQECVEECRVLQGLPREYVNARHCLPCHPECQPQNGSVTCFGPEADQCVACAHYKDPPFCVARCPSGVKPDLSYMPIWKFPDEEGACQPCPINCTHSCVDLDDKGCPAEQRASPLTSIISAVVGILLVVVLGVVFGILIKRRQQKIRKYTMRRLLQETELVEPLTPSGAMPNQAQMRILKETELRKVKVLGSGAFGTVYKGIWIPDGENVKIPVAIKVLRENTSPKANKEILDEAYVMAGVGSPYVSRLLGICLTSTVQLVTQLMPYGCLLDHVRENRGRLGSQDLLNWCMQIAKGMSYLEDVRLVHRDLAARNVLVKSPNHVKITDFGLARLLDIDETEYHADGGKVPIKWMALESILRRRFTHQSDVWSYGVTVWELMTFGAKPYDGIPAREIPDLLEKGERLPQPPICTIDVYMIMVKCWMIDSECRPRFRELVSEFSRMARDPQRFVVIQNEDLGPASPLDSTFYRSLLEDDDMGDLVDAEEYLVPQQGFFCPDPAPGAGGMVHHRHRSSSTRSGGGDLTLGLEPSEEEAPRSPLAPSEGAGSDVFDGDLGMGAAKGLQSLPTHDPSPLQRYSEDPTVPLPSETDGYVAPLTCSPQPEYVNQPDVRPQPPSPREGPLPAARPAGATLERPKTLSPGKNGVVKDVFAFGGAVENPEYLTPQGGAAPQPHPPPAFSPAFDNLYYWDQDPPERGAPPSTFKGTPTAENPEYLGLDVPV

The IC50 is the concentration needed to halve the response being measured. The Kd is a measure of binding affinity in units of concentration. Turning to `COc1cc2ncnc(Nc3cccc(Cl)c3F)c2cc1OCCON1CCN(C)CC1` [Compound 15, N-(3-chloro-2-fluorophenyl)-7-methoxy-6-(2-((4-methylpiperazin-1-yl)oxy)ethoxy)quinazolin-4-amine], in data set [1], the IC50 came out at 3.1 nM. For the same molecule, in data set [2], the IC50 was 7.2 nM. The IC50 at 20 min in data set [3] was over 30 µM. Besides, the antiproliferative activity entry in data set [4] was “no activity”. The aqueous solubility entry in data set [5] was “markedly improved aqueous solubility”. The same molecule gave an equilibrium dissociation constant (Kd) in data set [6] of 21 nM. Besides, in data set [7], the efflux entry is listed as “low efflux” and the permeability entry is listed as “excellent permeability”. The molecule further displayed a half-maximal inhibitory concentration (IC50) at 5 min in data set [8] of over 30 µM.
